Marks after values point to notes of the source that are not given here. Square brackets hold non-standard residues; d marks the D form. Ends that are not written are not given here. Nle = CCCC[C@H](N)C(=O)O
Assays:
small intestine = test: Intestine weight model in rats; assay type: in vivo, SD rats; details: for Avg. small intestine weight (gr) / Small intestine weight increase over vehicle (%): normal SD rats, injected once at 2 mg/kg peptide dose, 6th day; for Small intestine weight increase over vehicle (%): MAL-FMS-V4 compared to Vehicle 2
Protocol: In the pharmacology study, the conjugates were injected subcutaneously twice, on days 1 and 3 at 1 mg/kg (peptide dose) and intestine weight was performed on day 6. In addition to the PEGylated conjugates, GLP-2-Gly2 was injected at the same dose and regimen for comparison. The average of the intestine weight of each group was compared to that of the vehicle group.
In a different study, several of the PEGylated teduglutide were injected as a single dose at 1 mg/kg and the intestine weight performed on day 6.
Pharmacology and pharmacokinetic studies were performed with the most promising GLP-2 variants to evaluate their efficacy and longevity, respectively. The intestine weight model in rats was conducted to evaluate efficacy, by measuring percent increase of the intestine weight of treated animals over the vehicle group. In this study, the peptides were injected twice, on days 1 and 3 at 1 mg/kg and the intestine weight was conducted on day 6.
PEG20-FMS-V6, PEG20-Fmoc-V6 and PEG40-FMS-V6 were injected once at 1 mg/kg dose on day 1, while group D was also injected twice on days 1 & 3 at 1 mg/kg. The intestine weight was performed on day 6.
Three different reversible PEGylated GLP-2 variants using mutated peptide #4 were injected at 2 mg/kg (peptide dose), once every 6 days for 12 days. On the 12th day the intestine was weighted and compared to the control group. PEG30-FMS-V4 was injected at 0.5 mg/kg as well to evaluate the efficacy dose range.
In addition to PEG30-FMS-V4 and PEG30-Fmoc-V4 that have been pharmacology evaluated by small intestinal weight evaluation (As shown in Example 5), four other reversible PEGylated variant 4 (“V4”) conjugates and two reversible linker-V4 conjugates were synthesized. All the above were injected to 6 normal SD rats/group once at 2 mg/kg (peptide dose), while on the 6th day, animals were scarified, and the small intestine was weighted followed by histopathology evaluation. […] Therefore, slices from three areas of the intestine (duodenum, jejunum and ilium) were stained with hematoxylin and eosin and at least 7 Crypts+Villi length/slice were measured. The averaged Villi+Crypt length of each treatment group (n=6) was compared to the vehicle group (negative control) and calculated as percentage increase over vehicle.
Additional studies were conducted to evaluate the efficacy of the V4 peptide and the reversible MAL-FMS-V4. The long acting effect of V4 and the conjugates were evaluated at Day 6 and Day 10 following treatment (Study reference 15203). All test groups (n=9) were injected SC with 2 mg/kg peptide content at Day 1. At Days 6 and 10, animals were sacrificed and the small intestine underwent histopathology evaluation (6 animals for Day 6, 3 animals for Day 10). FIGS. 12 and 13 show the pharmacology effect of different V4 conjugates and Apraglutide and Glepaglutide as measured by the percent increase of small intestine weight and crypts plus villi length over vehicle, respectively.
To further evaluate the pharmacology efficacy of V4 and Cys-FMS-V4, an experiment was performed to test their acute and prolonged effect on the small intestine (Study reference 15205). In addition, V4 and Cys-FMS-V4 were administrated as a single SC injection on Day 1 at 3 different doses (0.5, 2.0 or 8.0 mg/kg peptide content, 6 rats per group) to assess the dose dependence effect. The pharmacological effect on small intestine weight and villi plus crypts length was measured at Days 3, 7 and 14, and the results are presented in FIGS. 15 and 16. […] It should be noted that this acute response was higher for V4 compared to Cys-FMS-V4 at all 3 dose levels.

[1] = tested on: intestine epithelium (crypts plus villi); test: Crypts plus villi length, histopathology of small intestine; assay type: in vivo, SD rats; details: injected once at 2 mg/kg peptide dose; 6th day
Protocol: In addition to PEG30-FMS-V4 and PEG30-Fmoc-V4 that have been pharmacology evaluated by small intestinal weight evaluation (As shown in Example 5), four other reversible PEGylated variant 4 (“V4”) conjugates and two reversible linker-V4 conjugates were synthesized. All the above were injected to 6 normal SD rats/group once at 2 mg/kg (peptide dose), while on the 6th day, animals were scarified, and the small intestine was weighted followed by histopathology evaluation. […] Therefore, slices from three areas of the intestine (duodenum, jejunum and ilium) were stained with hematoxylin and eosin and at least 7 Crypts+Villi length/slice were measured. The averaged Villi+Crypt length of each treatment group (n=6) was compared to the vehicle group (negative control) and calculated as percentage increase over vehicle. […]
An additional study to evaluate the efficacy and the longevity of V4 and Cys-FMS-V4 was conducted (Study reference 15204) in which the animals were sacrificed on Days 6 (N=6), 10 (N=4) and 14 (N=4). This experiment measured the pharmacological response compared to the commercially approved SBS treatment drug Gattex. In addition, two new conjugates were tested by conjugating V4 to reduced OSu-linker and Cys-FMS-V4 purified from resin. The animals were injected with a single SC injection at Day 1 with 2 mg/kg peptide content of V4, Cys-FMS-V4, FMS-OSu-V4, Apraglutide and Glepaglutide while Gattex was SC injected daily at 2.5 mg/kg peptide content. […]

GLP-2 receptor = GLP-2 receptor (UniProt O95838); test: cell-based or functional assay
[2] = 2 mg/kg peptide dose once every 6 days for 12 days, weighed on 12th day

Molecule	Average Intestine weight (gr) (small intestine; [2])	Increase of intestine weight over vehicle (%) (small intestine; [2])	Avg. small intestine weight (gr) (small intestine)	Small intestine weight increase over vehicle (%) (small intestine)	Percent increase of Crypts plus Villi length over vehicle (FIG. 1) [1]	EC50 (nM) Average, GLP2-receptor CBA, 3 independent assays (GLP-2 receptor)	EC50 Ratio to Teduglutide, GLP2-receptor CBA (GLP-2 receptor)	EC50 Ratio to Variant 4, GLP2-receptor CBA (GLP-2 receptor)
PEG30-Fmoc-V4 (HGEGSFSDE[Nle]NTILDLLAARDFINWLIQTKITD-NH2; also: PEG30-Fmoc conjugate, place not given here)	7.8 gr	29%	7.0 gr	36.0** %	better effect on the intestine epithelium than the V4 peptide	–	–	–
PEG30-MeOF-V4 (HGEGSFSDE[Nle]NTILDLLAARDFINWLIQTKITD-NH2; also: PEG30-MeOF conjugate, place not given here)	–	–	7.0 gr	39.0** %	better effect on the intestine epithelium than the V4 peptide	–	–	–
HGDGSFSDE[Nle][dF]TILDLLAARDFINWLIQTKITD-NH2 [Apraglutide (V1)]	–	–	–	–	–	1.7 nM	2.9 fold	1.6 fold
HGEGTFSSELATILDALAARDFIAWLIATKITDKKKKKK-NH2 [Glepaglutide (V10)]	–	–	–	–	–	5.4 nM	9.4 fold	5.3 fold

Reference: patent US20200254065A1, “LONG-ACTING GLP-2 ANALOGS” (OPKO Biologics Ltd., priority 2019, published 2020)
